Data: ChEMBL document CHEMBL2380196, “New anticancer active and selective phenylene-bisbenzothiazoles: synthesis, antiproliferative evaluation and DNA binding” (Eur J Med Chem, 2013)
The source made the active and inactive calls. The rule behind the calls is not given here.

Assays:
DNA [1] = assay: Binding affinity to calf thymus DNA at 50 uM by Circular dichroism spectra analysis; assay type: nucleic-acid assay; conditions: Bos taurus
DNA [2] = assay: Binding affinity to calf thymus DNA assessed as change in melting temperature at 0.25 drug/DNA ratio by spectrophotometer analysis; assay type: nucleic-acid assay; conditions: Bos taurus
HeLa [3] = assay: Cell cycle arrest in human HeLa cells assessed as accumulation in S phase after 24 hrs using propidium iodide staining by flow cytometry; assay type: functional, cell-based
SK-BR-3 [4] = assay: Induction of apoptosis in human SKBR3 cells at 10 uM after 24 hrs using propidium iodide/Annexin-V staining by flow cytometry relative to control; assay type: functional
HeLa [5] = assay: Cell cycle arrest in human HeLa cells assessed as accumulation in S phase at 10 uM after 24 hrs using propidium iodide staining by flow cytometry relative to control; assay type: functional
HeLa [6] = assay: Cell cycle arrest in human HeLa cells assessed as accumulation in G1 phase at 10 uM after 24 hrs using propidium iodide staining by flow cytometry relative to control; assay type: functional
MIA PaCa-2 [7] = assay: Cell cycle arrest in human MIAPaCa2 cells assessed as accumulation in S phase at 5 uM after 48 hrs using propidium iodide staining by flow cytometry relative to control; assay type: functional
MIA PaCa-2 [8] = assay: Cell cycle arrest in human MIAPaCa2 cells assessed as accumulation in G1 phase at 5 uM after 48 hrs using propidium iodide staining by flow cytometry relative to control; assay type: functional
MIA PaCa-2 [9] = assay: Cell cycle arrest in human MIAPaCa2 cells assessed as accumulation in G2/M phase at 10 uM after 24 hrs using propidium iodide staining by flow cytometry relative to control; assay type: functional
MIA PaCa-2 [10] = assay: Cell cycle arrest in human MIAPaCa2 cells assessed as accumulation in sub-G1 phase at 10 uM after 24 hrs using propidium iodide staining by flow cytometry relative to control; assay type: functional
MIA PaCa-2 [11] = assay: Cell cycle arrest in human MIAPaCa2 cells assessed as accumulation in G2/M phase at 5 uM after 24 hrs using propidium iodide staining by flow cytometry relative to control; assay type: functional
MIA PaCa-2 [12] = assay: Cell cycle arrest in human MIAPaCa2 cells assessed as accumulation in sub-G1 phase at 5 uM after 24 hrs using propidium iodide staining by flow cytometry relative to control; assay type: functional
SK-BR-3 [13] = assay: Cell cycle arrest in human SKBR3 cells assessed as accumulation in S phase at 5 uM after 48 hrs using propidium iodide staining by flow cytometry relative to control; assay type: functional
SK-BR-3 [14] = assay: Cell cycle arrest in human SKBR3 cells assessed as accumulation in G2/M phase at 10 uM after 24 hrs using propidium iodide staining by flow cytometry relative to control; assay type: functional
SK-BR-3 [15] = assay: Cell cycle arrest in human SKBR3 cells assessed as accumulation in G1 phase at 10 uM after 24 hrs using propidium iodide staining by flow cytometry relative to control; assay type: functional
SK-BR-3 [16] = assay: Cell cycle arrest in human SKBR3 cells assessed as accumulation in G2/M phase at 5 uM after 24 hrs using propidium iodide staining by flow cytometry relative to control; assay type: functional
SK-BR-3 [17] = assay: Cell cycle arrest in human SKBR3 cells assessed as accumulation in S phase at 5 uM after 24 hrs using propidium iodide staining by flow cytometry relative to control; assay type: functional
SK-BR-3 [18] = assay: Cell cycle arrest in human SKBR3 cells assessed as accumulation in sub-G1 phase at 5 uM after 24 hrs using propidium iodide staining by flow cytometry relative to control; assay type: functional
SW-620 [19] = assay: Cell cycle arrest in human SW620 cells assessed as accumulation in S phase at 10 uM after 48 hrs using propidium iodide staining by flow cytometry relative to control; assay type: functional
SW-620 [20] = assay: Cell cycle arrest in human SW620 cells assessed as accumulation in G1 phase at 10 uM after 48 hrs using propidium iodide staining by flow cytometry relative to control; assay type: functional
SW-620 [21] = assay: Cell cycle arrest in human SW620 cells assessed as accumulation in sub-G1 phase at 10 uM after 48 hrs using propidium iodide staining by flow cytometry relative to control; assay type: functional
SW-620 [22] = assay: Cell cycle arrest in human SW620 cells assessed as accumulation in G2/M phase at 5 uM after 48 hrs using propidium iodide staining by flow cytometry relative to control; assay type: functional
SW-620 [23] = assay: Cell cycle arrest in human SW620 cells assessed as accumulation in G1 phase at 5 uM after 48 hrs using propidium iodide staining by flow cytometry relative to control; assay type: functional
SW-620 [24] = assay: Cell cycle arrest in human SW620 cells assessed as accumulation in sub-G1 phase at 5 uM after 48 hrs using propidium iodide staining by flow cytometry relative to control; assay type: functional
SW-620 [25] = assay: Cell cycle arrest in human SW620 cells assessed as accumulation in G2/M phase at 10 uM after 24 hrs using propidium iodide staining by flow cytometry relative to control; assay type: functional
SW-620 [26] = assay: Cell cycle arrest in human SW620 cells assessed as accumulation in G1 phase at 10 uM after 24 hrs using propidium iodide staining by flow cytometry relative to control; assay type: functional
SW-620 [27] = assay: Cell cycle arrest in human SW620 cells assessed as accumulation in G2/M phase at 5 uM after 24 hrs using propidium iodide staining by flow cytometry relative to control; assay type: functional
SW-620 [28] = assay: Cell cycle arrest in human SW620 cells assessed as accumulation in S phase at 5 uM after 24 hrs using propidium iodide staining by flow cytometry relative to control; assay type: functional
SW-620 [29] = assay: Cell cycle arrest in human SW620 cells assessed as accumulation in G1 phase at 5 uM after 24 hrs using propidium iodide staining by flow cytometry relative to control; assay type: functional
SW-620 [30] = assay: Cell cycle arrest in human SW620 cells assessed as accumulation in sub-G1 phase at 5 uM after 24 hrs using propidium iodide staining by flow cytometry relative to control; assay type: functional
SW-620 [31] = assay: Antiproliferative activity against human SW620 cells after 72 hrs by MTT assay; assay type: functional, cell-based; conditions: SW-620, 72 h; for CC50: read-out: LC50 (the source's name)
MIA PaCa-2 [32] = assay: Antiproliferative activity against human MIAPaCa2 cells after 72 hrs by MTT assay; assay type: functional, cell-based; conditions: MIA PaCa-2, 72 h; for CC50: read-out: LC50 (the source's name)
SK-BR-3 [33] = assay: Antiproliferative activity against human SKBR3 cells after 72 hrs by MTT assay; assay type: functional, cell-based; conditions: SK-BR-3, 72 h; for CC50: read-out: LC50 (the source's name)
MIA PaCa-2 [34] = assay: Induction of apoptosis in human MIAPaCa2 cells at 10 uM after 24 hrs using propidium iodide/Annexin-V staining by flow cytometry relative to control; assay type: functional

| Compound | Activity (DNA [1]) | ΔTm (DNA [2]) [°C] | Activity (SK-BR-3 [4]) [%] | Activity (HeLa [5]) [%] | Activity (HeLa [6]) [%] | Activity (MIA PaCa-2 [7]) [%] | Activity (MIA PaCa-2 [8]) [%] | Activity (MIA PaCa-2 [9]) [%] | Activity (MIA PaCa-2 [10]) [%] | Activity (MIA PaCa-2 [11]) [%] | Activity (MIA PaCa-2 [12]) [%] | Activity (SK-BR-3 [13]) [%] | Activity (SK-BR-3 [14]) [%] | Activity (SK-BR-3 [15]) [%] | Activity (SK-BR-3 [16]) [%] | Activity (SK-BR-3 [17]) [%] | Activity (SK-BR-3 [18]) [%] | IC50 (SW-620 [31]) [µM] | CC50 (SW-620 [31]) [µM] | IC50 (MIA PaCa-2 [32]) [µM] | other results |
| --- | --- | --- | --- | --- | --- | --- | --- | --- | --- | --- | --- | --- | --- | --- | --- | --- | --- | --- | --- | --- | --- |
| Cl.Cl.c1cc(-c2nc3ccc(C4=NCCN4)cc3s2)cc(-c2nc3ccc(C4=NCCN4)cc3s2)c1 | Active | 12.8 | 8 | 66.3 | 31.7 | 30.8 | 52.1 | 21.3 | 8.1 | 10.9 | 17.7 | 44 | 17.8 | 28.7 | 4.2 | 58.9 | 33.3 | 0.47 | 6.19 | 0.26 | Activity (HeLa [3]): Dose-dependent effect; Activity (SW-620 [19]): 69.6%; Activity (SW-620 [20]): 23.7%; Activity (SW-620 [21]): 13.6%; Activity (SW-620 [22]): 14.7%; Activity (SW-620 [23]): 36.7%; Activity (SW-620 [24]): 24.8%; Activity (SW-620 [25]): 23.9%; Activity (SW-620 [26]): 29.9%; Activity (SW-620 [27]): 15.5%; Activity (SW-620 [28]): 46.6%; Activity (SW-620 [29]): 45.3%; Activity (SW-620 [30]): 13.5%; CC50 (MIA PaCa-2 [32]): 1.49 µM; IC50 (SK-BR-3 [33]): 0.04 µM; CC50 (SK-BR-3 [33]): 0.87 µM |
| Cl.Cl.c1cc2nc(-c3ccc(-c4nc5ccc(C6=NCCN6)cc5s4)cc3)sc2cc1C1=NCCN1 | inactive | 3.9 | 5 | 58.7 | 34.2 | 35.8 | 45.9 | 19 | 33.1 | 5.8 | 34.4 | 32.6 | 14.5 | 50.9 | 11.6 | 33.5 | 15.8 | 7.65 | > 100 | 3.54 | Activity (MIA PaCa-2 [34]): 5%; CC50 (MIA PaCa-2 [32]): 36.7 µM; IC50 (SK-BR-3 [33]): 1.18 µM; CC50 (SK-BR-3 [33]): 8.07 µM |
